Reference: ChEMBL document CHEMBL5214913, “Cysteine proteases as potential targets for anti-trypanosomatid drug discovery” (Bioorg Med Chem, 2021)
Where a SMILES comes first, the peptide text is derived from it. The star is where a group is joined. Cbz = O=C(OCc1ccccc1)*

How the values were obtained:
[1] = test system: Trypanosoma cruzi; experiment: Antitrypanosomal activity against bloodstream Trypanosoma cruzi Y strain trypomastigote assessed as reduction in parasite viability incubated for 24 hrs by Neubauer chamber based analysis; type: functional, organism-based
[2] = test system: Leishmania amazonensis; experiment: Antileishmanial activity against Leishmania amazonensis promastigotes assessed as reduction in parasite survival measured after 48 hrs by Neubauer counting chamber based analysis; type: functional; conditions: read-out: LD50 (the source's name)
[3] = test system: Trypanosoma cruzi; experiment: Antitrypanosomal activity against Trypanosoma cruzi Dm28c epimastigotes assessed as reduction in parasite viability incubated for 48 hrs by trypan blue staining based Neubauer counting chamber analysis; type: functional, organism-based
[4] = test system: Trypanosoma cruzi; experiment: Antiparasitic activity against Trypanosoma cruzi DM28c epimastigotes harboring TcMCA3 assessed reduction in parasite viability incubated for 72 hrs by MTT assay; type: functional, organism-based

Compound | IC50 [1] [µM] | LC50 [2] [µM] | IC50 [3] [µM] | IC50 [4] [µM]
CC(C)[C@H](NC(=O)OCc1ccccc1)C(=O)N[C@H](C=O)Cc1ccccc1 (Cbz-Val-Phe-aldehyde) | 20.4 | 23.3 | 31.7 | –
C=CCc1cccc(/C=N/NC(=O)CN2CCN(Cc3ccccc3)CC2)c1O [PAC-1] | – | – | – | 14
